Results: the supplement of paper PMC10307832

Experiments:
Experiment in all cases: relative viability (nuclei count vs DMSO), 5 days (fraction); higher = more cells survive
[1] = compound: O=c1[nH]cc(F)c(=O)[nH]1 [5-Fluorouracil] + CC(=O)Nc1cccc(-n2c(=O)n(C3CC3)c(=O)c3c(Nc4ccc(I)cc4F)n(C)c(=O)c(C)c32)c1 [Trametinib] (partner 0.02 µM)
In short: (§1)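 One day after seeding in 1536-well plates, lung cancer cell lines were dosed by pin tool. Dosing was either single-drug or a fixed anchor-drug dose plus five library-drug doses (not always all listed) in √10 steps. After 5 days, nuclei were stained in one fix-and-stain step and counted on 4× images, and relative viability is the nuclei count of treated wells over that of vehicle wells, given as the median of duplicate plates.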

[2] = compound: CN[C@@H]1C[C@H]2O[C@@](C)([C@@H]1OC)n1c3ccccc3c3c4c(c5c6ccccc6n2c5c31)C(=O)NC4 [Staurosporine] + CCNC(=O)c1noc(-c2cc(C(C)C)c(O)cc2O)c1-c1ccc(CN2CCOCC2)cc1 [Luminespib] (partner 0.01 µM)
In short: as §1

[3] = compound: O=c1[nH]cc(F)c(=O)[nH]1 [5-Fluorouracil] + CS(=O)(=O)N1CCN(Cc2cc3nc(-c4cccc5[nH]ncc45)nc(N4CCOCC4)c3s2)CC1 [Pictilisib] (partner 1 µM)
In short: as §1

[4] = compound: O=c1[nH]cc(F)c(=O)[nH]1 [5-Fluorouracil] + CCNC(=O)c1noc(-c2cc(C(C)C)c(O)cc2O)c1-c1ccc(CN2CCOCC2)cc1 [Luminespib] (partner 0.01 µM)
In short: as §1

UMC-11
relative viability ([1]; first compound 0.02 µM): 0.711 | relative viability ([1]; first compound 0.2 µM): 0.673 | relative viability ([1]; first compound 0.6325 µM): 0.448 | relative viability ([2]; first compound 0.005 µM): 0.894 | relative viability ([2]; first compound 0.01581 µM): 0.487 | relative viability ([2]; first compound 0.05 µM): 0.223 | relative viability ([2]; first compound 0.1581 µM): 0.135 | relative viability ([2]; first compound 0.5 µM): 0.0992 | relative viability ([3]; first compound 0.02 µM): 0.834 | relative viability ([3]; first compound 0.2 µM): 0.601 | relative viability ([3]; first compound 0.6325 µM): 0.397 | relative viability ([3]; first compound 2 µM): 0.36 | relative viability ([4]; first compound 0.02 µM): 0.954 | relative viability ([4]; first compound 0.2 µM): 0.68 | relative viability ([4]; first compound 0.6325 µM): 0.516 | relative viability ([4]; first compound 2 µM): 0.396
